The subject of one experiment is tuberculosis. In words: SCV-07 therapy of a patient with infiltrative tuberculosis (Example 1). It counts as in vivo, human. The settings on record: after SCV-07 0.1 mg daily for 5 days. On the procedure:
A patient, was admitted to the hospital with infiltrative tuberculosis with destruction and dissemination in the upper lobe of the left lung. […] Lymphopenia (18%) and increased ESR (25 mm/h) were present in the blood count. […] Aggressive traditional antituberculosis therapy was carried out including isoniazid at 600 mg/day intravenously, pyrazinamid at 1500 mg/day per os, rifampicin at 450 mg/day per os.
The traditional therapy was unsuccessful, and SCV-07 treatment was undertaken. Following a course of SCV-07 therapy at 0.1 mg daily for 5 days, bacterial intoxication resolved, destructive cavities closed and the sputum culture test was negative. CD3+ lymphocytes increased and tolerance to other drugs improved.

The next experiment concerns spleen cells. The experiment is described as follows: Spleen cell proliferation (Con A, LPS, tuberculin) from treated infected mice. Format: in vivo. The method, then: Spleens from mice were harvested aseptically, homogenized in RPMI-1640 medium (Biolot, Russia) and filtered through two layers of sterile gauze. Erythrocytes were lysed in 0.83% percent ammonium chloride solution after centrifugation of the homogenate. Spleen cells were washed twice with RPMI-1640 with 2 mM L-glutamine and […] gentamycin (Sigma, St. Louis, Mo.), then counted using a Goriaev hemocytometer.
Spleen cells and thymic cells were isolated as described above. In vitro, thymic cells were diluted to 10^7/ml in RPMI-1640 with 2 mM L-glutamine, 80 ìg/ml gentamycin and 4% heat-inactivated fetal calf serum (Sigma, St. Louis, Mo.). Spleen cells were diluted to 3×10^6/ml in RPMI-1640 with 2 mM L-glutamine, 80 ìg/ml gentamycin and 20% inactivated fetal calf serum. 0.5 ìg/ml Concanavalin A (Con A, Sigma, St. Louis, Mo.) was used to stimulate thymic cell proliferation. For spleen cell proliferation, 0.5 ìg/ml Con A, 10 ìg/ml lipopolysaccharide (Sigma, St. Louis, Mo.), and 50 ìg/ml tuberculin purified protein derivative (PPD) were utilized. The assay was carried out in 96-well plates and cell cultures were incubated for 72 hours, or 96 hours if tuberculin was used, at 37° C. in humidified 5% CO2, then pulsed with 5 ìl Ci/ml ^3H-thymidine overnight (approximately 16 h) and harvested on filters using a semi-automated harvester (Titertek™, Flow Laboratories, Norway). Filters were dried and proliferation calculated by ^3H-thymidine incorporation by counting samples in a liquid scintillation counter (LKB 1217 Racketa, Wallace, Sweden). Data was expressed in impulses per minute.

The subject of the next experiment is IL-2. In words: IL-2 production by Con A stimulated spleen cells (CTLL-2 assay). Format: in vivo, mice. On the procedure: (§1) In RPMI-1640, spleen cells were diluted to a concentration of 10^7/ml with 10% fetal calf serum, 2 mM L-glutamine and 80 ìg/ml gentamycin. A 100 ìl cell suspension was added to each well of a 96-well culture plate and cytokine production was induced by Con A at a final concentration of 2.5 ìg/ml. A control well included RPMI-1640. For 24 hours, cells were incubated at 37° C. and humidified in 5% CO2. Following incubation, […] of supernatant was removed from each well and stored at −70° C.
In order to determine the IL-2 concentration in cell culture supernatants, the CTLL-2 IL-2 dependent cell line was used. CTLL-IL-2 cells were washed twice in RPMI-1640 and counted with a Goriaev hemocytometer. Supernatants were diluted in 96-well culture plates at dilutions of 1:5, 1:15, 1:45 and 1:135 in a volume of 100 il. IL-2 standard dilutions were also prepared. Cells were diluted to 2×10^5/ml in RPMI-1640 with 10% inactivated fetal calf serum, 2 mM L-glutamine, 80 ìg/ml gentamycin. The 100 ìl suspension was added to each well of the culture plate and incubated for 48 h at 37° C. in 5% CO2 humidity. Ten ìl of 5 i Ci/ml ^3H-thymidine was added to each well 16 h before the end of incubation. Following incubation, the cells were harvested on filters through the use of a semi-automated harvester and samples were counted in a liquid scintillation counter.

Experiment [1] concerns IL-4 and IFN-γ. The experiment is described as follows: IL-4 and INF-γ in spleen cell supernatants (Quantikine ELISA). It counts as in vivo, mice. On the procedure: as §1
IL-4 and INF-γ assays in Con A-stimulated spleen cell supernatants were also performed using Quantikine™ ELIZA kits R & D Systems, Minneapolis, Minn.) in accordance with kit instructions. Plates were coated with monoclonal antibodies to either IL-4 or IFN-γ and blocked. Standards and samples were subsequently added. The cells were incubated for 2 h and washed, following with the addition of a colorimetric substrate. After 30 minutes, the reaction was terminated and plates were read at 450 nm using a plate reader (Multiscan™ 3550, BioRad, Japan).

The test system of experiment [2] is IL-4 and IFN-γ. In words: INF-γ and IL-4 concentrations in blood serum. Format: in vivo, mice.
Where [3] appears, read: after 10 days, Groups 4, 5, 6 and 7.

Each structure is given as a SMILES string.

The record followed here is patent publication US20040259806A1 (priority 2001, published 2004).

For `N[C@H](CCC(=O)N[C@@H](Cc1c[nH]c2ccccc12)C(=O)O)C(=O)O` [SCV-07, γ-D-glutamyl-L-tryptophan], in the experiment on tuberculosis, the “CD3+ lymphocytes” value was “increased”, the bacterial intoxication entry is listed as “resolved” and the destructive cavities entry is “closed”. The “Immune complexes in circulation” value in the experiment with tuberculosis (from 84 U, normal level 22-66 U) stood at 69 U. The sputum culture test entry with tuberculosis (traditional therapy was unsuccessful) is given as “negative”. In the experiment with spleen cells (after 24 days, Group 6 (1 ìg/kg, 10 injections ip)), the “spleen cell proliferative response with LPS” value is reported as “did not differ from uninfected mice”. The “spleen cell proliferative response with Con A” value with spleen cells (after 24 days, Groups 6 and 7 (1 ìg/kg, 10 injections ip and 0.1 ìg/kg ip)) is listed as “did not differ from uninfected mice”. Moreover, in the experiment with spleen cells (later than 4 days of therapy, Group 6 (1 ìg/kg ip, 10 injections)), the “spleen cell proliferative response to tuberculin” value is reported as “significantly higher than the control”. The IL-2 production in the experiment with IL-2 (4 days after therapy, Group 7 (0.1 ìg/kg ip) compared to Group 3 (isoniazid control), Con A stimulated spleen cells) is given as 41.6±5.6 U/ml. In addition, the IL-2 level entry in the experiment on IL-2 (24 days after therapy, Group 6 (1 ìg/kg ip, 10 injections) and Group 7 (0.1 ìg/kg ip)) is “did not differ from uninfected mice”. Moreover, the IL-2 production entry in the experiment with IL-2 (all treated groups, all time points after therapy) was “increase”. Further, the “basal IFN-γ production” value in the experiment on IL-4 and IFN-γ [1] (4 days after therapy, versus isoniazid control mice (Group 3)) is listed as “failed to differ”. The “Con A stimulated INF-γ production” value with IL-4 and IFN-γ [1] (10 days after therapy, Groups 4, 5, 6 and 8) is “stimulation”. The “Con A stimulated IL-4 production” value in the experiment on IL-4 and IFN-γ [1] (10 days after therapy, Groups 5, 6 and 7) is “significantly decreased”. Moreover, the “basal IFN-γ production” value in the experiment with IL-4 and IFN-γ [1] (17 days after therapy, all mice) was “increase”. Moreover, the “basal INF-γ production” value in the experiment with IL-4 and IFN-γ [1] (end of the experiment, only Group 6 (1 ìg/kg ip, 10 injections)) is recorded as “maintenance of this increase”. Besides, the “basal IL-4 production” value in the experiment with IL-4 and IFN-γ [1] (mouse, in vivo) was “No significant changes”. Further, the “basal IFN-γ production” value in the experiment with IL-4 and IFN-γ [1] (ten days after therapy, Groups 5, 6 and 7) was “significant elevation”. Moreover, in the experiment on IL-4 and IFN-γ [2] (setting [3]), the “IFN-γ levels in blood serum” value is reported as “increased” and the “IL-4 levels in blood serum” value was “decreased”. Besides, in the experiment with IL-4 and IFN-γ [2] (after 17 days, Groups 4, 5, 6, 7 and 8 (significantly in group 7 and 8)), the “concentration of IFN-γ in blood serum” value is “increased”. For the same compound, in the experiment with IL-4 and IFN-γ [2] (after 17 days, Groups 5, 6 and 7), the “IL-4 in blood serum” value is “significantly decreased”.
